This is an account of results in patent US12115155B2, “Solid dosage form of a nicotine concentration” (Fertin Pharma A/S, priority 2017, dated 2024).

SMILES strings stand for the structures.

For the data set the following is noted: nicotine concentration increased from 100 microgram/mL to 14,000 microgram/mL.

Regarding `CN1CCCC1c1cccnc1` (stereo not shown) [nicotine], the “change of permeability of nicotine across the buccal mucosa” value was “decrease of about a factor of two”.
